Test system: CAR-induced swelling, rat knee joint
Conditions: intra-articular, 30 minutes before CAR, TAC 10 μg/joint
Experimental: In order to induce an inflammation reaction, a carrageenan solution (CAR, 1%, 50 μl) was injected intra-articularly on one side into a rat knee joint. The uninjected side was used for control purposes. Six animals per group were used.
The specific cathepsin D inhibitors according to the invention were administered out intra-articularly 30 minutes before the CAR.

**Q.** With `C[C@]12C=CC(=O)C=C1CC[C@H]1[C@@H]3C[C@@H](O)[C@](O)(C(=O)CO)[C@@]3(C)C[C@H](O)[C@@]12F` [TAC, Triamcinolone] as the molecule, how does the “reduction of CAR-induced swelling” value read?
**A.** capable of reducing the CAR-induced swelling

Reference: US9884814B2, “Acylguanidines for treating osteoarthritis” (Merck Patent GmbH, priority 2013, dated 2018)
